Data from PubChem BioAssay (NCI).
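GI50 marks 50% less growth. TGI is the concentration that stops growth completely.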

Legend:
Assay in all cases: DTP human tumour cell line panel, 384-well format
SF-539 CNS = tested on: SF-539 CNS
SK-MEL-5 melanoma = tested on: SK-MEL-5 melanoma
CAKI-1 renal = tested on: CAKI-1 renal
NCI-H460 NSCLC = tested on: NCI-H460 NSCLC
HL-60(TB) leukemia = tested on: HL-60(TB) leukemia
HOP-62 NSCLC = tested on: HOP-62 NSCLC
SN12C renal = tested on: SN12C renal
HCT-15 colon = tested on: HCT-15 colon
NCI-H322M lung = tested on: NCI-H322M lung
SR leukemia = tested on: SR leukemia
KM12 colon = tested on: KM12 colon
MDA-MB-468 breast = tested on: MDA-MB-468 breast
COLO 205 colon = tested on: COLO 205 colon
HT29 colon = tested on: HT29 colon
A498 renal = tested on: A498 renal
HCC-2998 colon = tested on: HCC-2998 colon
ACHN renal = tested on: ACHN renal
NCI-H522 lung = tested on: NCI-H522 lung
OVCAR-8 ovarian = tested on: OVCAR-8 ovarian
A549 NSCLC = tested on: A549 NSCLC
MDA-MB-435 melanoma = tested on: MDA-MB-435 melanoma
MDA-MB-231 breast = tested on: MDA-MB-231 breast
OVCAR-5 ovarian = tested on: OVCAR-5 ovarian
SK-OV-3 ovarian = tested on: SK-OV-3 ovarian
MCF7 breast = tested on: MCF7 breast
HCT-116 colon = tested on: HCT-116 colon
M14 melanoma = tested on: M14 melanoma
RPMI-8226 leukemia = tested on: RPMI-8226 leukemia
NCI-H23 lung = tested on: NCI-H23 lung
SK-MEL-28 melanoma = tested on: SK-MEL-28 melanoma
NCI/ADR-RES ovarian = tested on: NCI/ADR-RES ovarian
MALME-3M melanoma = tested on: MALME-3M melanoma
UACC-62 melanoma = tested on: UACC-62 melanoma
RXF 393 renal = tested on: RXF 393 renal
SF-295 CNS = tested on: SF-295 CNS
OVCAR-3 ovarian = tested on: OVCAR-3 ovarian
786-0 renal = tested on: 786-0 renal
NCI-H226 lung = tested on: NCI-H226 lung
IGROV1 ovarian = tested on: IGROV1 ovarian
UACC-257 melanoma = tested on: UACC-257 melanoma
HOP-92 NSCLC = tested on: HOP-92 NSCLC
BT-549 breast = tested on: BT-549 breast
SW-620 colon = tested on: SW-620 colon
T-47D breast = tested on: T-47D breast
PC-3 prostate = tested on: PC-3 prostate
DU-145 prostate = tested on: DU-145 prostate
SF-268 CNS = tested on: SF-268 CNS
EKVX NSCLC = tested on: EKVX NSCLC
SNB-75 CNS = tested on: SNB-75 CNS
TK-10 renal = tested on: TK-10 renal
HS 578T breast = tested on: HS 578T breast
OVCAR-4 ovarian = tested on: OVCAR-4 ovarian
LOX IMVI melanoma = tested on: LOX IMVI melanoma
SNB-19 CNS = tested on: SNB-19 CNS
U251 glioblastoma = tested on: U251 glioblastoma
MOLT-4 leukemia = tested on: MOLT-4 leukemia
UO-31 renal = tested on: UO-31 renal
K-562 leukemia = tested on: K-562 leukemia

CNC(=O)c1ccc(N2C(=S)N(c3ccc(C#N)c(C(F)(F)F)c3)C(=O)C2(C)C)cc1F showed a GI50 (SF-539 CNS) greater than 100 µM, a TGI (SF-539 CNS) greater than 100 µM and a GI50 (SK-MEL-5 melanoma) of 41.4 µM. The TGI (SK-MEL-5 melanoma) was greater than 100 µM, the GI50 (CAKI-1 renal) was 90.8 µM and the TGI (CAKI-1 renal) was greater than 100 µM. It also gave a GI50 (NCI-H460 NSCLC) of 38.9 µM, a TGI (NCI-H460 NSCLC) greater than 100 µM and a GI50 (HL-60(TB) leukemia) of 17 µM. The TGI (HL-60(TB) leukemia) was 34.5 µM, the GI50 (HOP-62 NSCLC) was 27.5 µM and the TGI (HOP-62 NSCLC) was 84.9 µM. The GI50 (SN12C renal) was greater than 100 µM, the TGI (SN12C renal) was greater than 100 µM and the GI50 (HCT-15 colon) was 46 µM. The TGI (HCT-15 colon) was greater than 100 µM, the GI50 (NCI-H322M lung) was 93.8 µM and the TGI (NCI-H322M lung) was greater than 100 µM. For the same molecule, the GI50 (SR leukemia) was 33.5 µM, the TGI (SR leukemia) was 49.7 µM and the GI50 (KM12 colon) was 69.1 µM. The TGI (KM12 colon) was greater than 100 µM, the GI50 (MDA-MB-468 breast) was 26.9 µM and the TGI (MDA-MB-468 breast) was 80.2 µM. The GI50 (COLO 205 colon) was 95.5 µM, the TGI (COLO 205 colon) was greater than 100 µM and the GI50 (HT29 colon) was 82.9 µM. It also gave a TGI (HT29 colon) greater than 100 µM, a GI50 (A498 renal) of 54.7 µM and a TGI (A498 renal) greater than 100 µM. The GI50 (HCC-2998 colon) was 93.4 µM, the TGI (HCC-2998 colon) was greater than 100 µM and the GI50 (ACHN renal) was 19.8 µM. For the same molecule, the TGI (ACHN renal) was 40.4 µM, the GI50 (NCI-H522 lung) was 74 µM and the TGI (NCI-H522 lung) was greater than 100 µM. It also gave a GI50 (OVCAR-8 ovarian) of 37.6 µM, a TGI (OVCAR-8 ovarian) greater than 100 µM and a GI50 (A549 NSCLC) of 34.4 µM. It also gave a TGI (A549 NSCLC) greater than 100 µM, a GI50 (MDA-MB-435 melanoma) greater than 100 µM and a TGI (MDA-MB-435 melanoma) greater than 100 µM. It also gave a GI50 (MDA-MB-231 breast) of 95.6 µM, a TGI (MDA-MB-231 breast) greater than 100 µM and a GI50 (OVCAR-5 ovarian) greater than 100 µM. It also gave a TGI (OVCAR-5 ovarian) greater than 100 µM, a GI50 (SK-OV-3 ovarian) greater than 100 µM and a TGI (SK-OV-3 ovarian) greater than 100 µM. The GI50 (MCF7 breast) was 37.6 µM, the TGI (MCF7 breast) was greater than 100 µM and the GI50 (HCT-116 colon) was 33.7 µM. For the same molecule, the TGI (HCT-116 colon) was greater than 100 µM, the GI50 (M14 melanoma) was 81.9 µM and the TGI (M14 melanoma) was greater than 100 µM. The GI50 (RPMI-8226 leukemia) was 32 µM, the TGI (RPMI-8226 leukemia) was greater than 100 µM and the GI50 (NCI-H23 lung) was 31.3 µM. For the same molecule, the TGI (NCI-H23 lung) was greater than 100 µM, the GI50 (SK-MEL-28 melanoma) was greater than 100 µM and the TGI (SK-MEL-28 melanoma) was greater than 100 µM. The GI50 (NCI/ADR-RES ovarian) was 27.5 µM, the TGI (NCI/ADR-RES ovarian) was 90.9 µM and the GI50 (MALME-3M melanoma) was 24.1 µM. For the same molecule, the TGI (MALME-3M melanoma) was greater than 100 µM, the GI50 (UACC-62 melanoma) was greater than 100 µM and the TGI (UACC-62 melanoma) was greater than 100 µM. The GI50 (RXF 393 renal) was 29.6 µM, the TGI (RXF 393 renal) was 85.7 µM and the GI50 (SF-295 CNS) was 31.6 µM. For the same molecule, the TGI (SF-295 CNS) was greater than 100 µM, the GI50 (OVCAR-3 ovarian) was 59.2 µM and the TGI (OVCAR-3 ovarian) was greater than 100 µM. For the same molecule, the GI50 ([…]-0 renal) was greater than 100 µM, the TGI (786-0 renal) was greater than 100 µM and the GI50 (NCI-H226 lung) was 29.9 µM. It also gave a TGI (NCI-H226 lung) greater than 100 µM, a GI50 (IGROV1 ovarian) of 52.1 µM and a TGI (IGROV1 ovarian) greater than 100 µM. For the same molecule, the GI50 (UACC-257 melanoma) was 72.4 µM, the TGI (UACC-257 melanoma) was greater than 100 µM and the GI50 (HOP-92 NSCLC) was greater than 100 µM. The TGI (HOP-92 NSCLC) was greater than 100 µM, the GI50 (BT-549 breast) was 31.7 µM and the TGI (BT-549 breast) was 95.5 µM. The GI50 (SW-620 colon) was greater than 100 µM, the TGI (SW-620 colon) was greater than 100 µM and the GI50 (T-47D breast) was 32.9 µM. It also gave a TGI (T-47D breast) greater than 100 µM, a GI50 (PC-3 prostate) of 49.6 µM and a TGI (PC-3 prostate) greater than 100 µM. The GI50 (DU-145 prostate) was 37.5 µM, the TGI (DU-145 prostate) was greater than 100 µM and the GI50 (SF-268 CNS) was 72.2 µM. For the same molecule, the TGI (SF-268 CNS) was greater than 100 µM, the GI50 (EKVX NSCLC) was 44.8 µM and the TGI (EKVX NSCLC) was greater than 100 µM. It also gave a GI50 (SNB-75 CNS) of 48.5 µM, a TGI (SNB-75 CNS) greater than 100 µM and a GI50 (TK-10 renal) greater than 100 µM. For the same molecule, the TGI (TK-10 renal) was greater than 100 µM, the GI50 (HS 578T breast) was 30.9 µM and the TGI (HS 578T breast) was greater than 100 µM. The GI50 (OVCAR-4 ovarian) was 34.7 µM, the TGI (OVCAR-4 ovarian) was 92.6 µM and the GI50 (LOX IMVI melanoma) was 49.6 µM. It also gave a TGI (LOX IMVI melanoma) greater than 100 µM, a GI50 (SNB-19 CNS) of 85.4 µM and a TGI (SNB-19 CNS) greater than 100 µM. It also gave a GI50 (U251 glioblastoma) of 61.9 µM, a TGI (U251 glioblastoma) greater than 100 µM and a GI50 (MOLT-4 leukemia) of 18.1 µM. It also gave a TGI (MOLT-4 leukemia) of 35.3 µM, a GI50 (UO-31 renal) of 63.1 µM and a TGI (UO-31 renal) greater than 100 µM.

With CC(=O)O[C@H]1C(=O)[C@@]2(C)[C@H]([C@H](OC(=O)c3ccccc3)[C@]3(O)C[C@H](OC(=O)[C@H](O)[C@@H](NC(=O)c4ccccc4)c4ccccc4)C(C)=C1C3(C)C)[C@]1(OC(C)=O)CO[C@@H]1C[C@@H]2O the TGI (SF-539 CNS) was 0.0123 µM, the GI50 (CAKI-1 renal) was 0.0507 µM and the TGI (CAKI-1 renal) was greater than 100 µM. The TGI (NCI-H460 NSCLC) was less than 0.013 µM, the TGI (HOP-62 NSCLC) was 14.7 µM and the TGI (SN12C renal) was 99.9 µM. The GI50 (HCT-15 colon) was 0.0889 µM, the TGI (HCT-15 colon) was 25 µM and the GI50 (NCI-H322M lung) was 0.014 µM. The TGI (NCI-H322M lung) was greater than 100 µM, the TGI (KM12 colon) was greater than 100 µM and the GI50 (A498 renal) was 0.0265 µM. It also gave a TGI (A498 renal) of 36.3 µM, a TGI (K-562 leukemia) of less than 0.013 µM and a GI50 (ACHN renal) of 0.0611 µM. For the same molecule, the TGI (ACHN renal) was 45.8 µM, the TGI (OVCAR-8 ovarian) was 0.0102 µM and the TGI (A549 NSCLC) was greater than 46.4 µM. It also gave a TGI (MDA-MB-231 breast) of 22.7 µM, a TGI (OVCAR-5 ovarian) greater than 83.8 µM and a TGI (SK-OV-3 ovarian) greater than 31.6 µM. It also gave a TGI (MCF7 breast) greater than 46.2 µM, a TGI (HCT-116 colon) greater than 100 µM and a GI50 (NCI/ADR-RES ovarian) of 3.1 µM. The TGI (NCI/ADR-RES ovarian) was 9.24 µM, the TGI (UACC-62 melanoma) was 18.8 µM and the GI50 (RXF 393 renal) was less than 0.0116 µM. The TGI (RXF 393 renal) was 0.022 µM, the GI50 (SF-295 CNS) was 0.0114 µM and the TGI (SF-295 CNS) was 0.0364 µM. The TGI (OVCAR-3 ovarian) was 0.144 µM, the GI50 ([…]-0 renal) was 0.0191 µM and the TGI (786-0 renal) was greater than 54.4 µM. It also gave a GI50 (NCI-H226 lung) of 0.745 µM, a TGI (NCI-H226 lung) of 19.2 µM and a TGI (IGROV1 ovarian) greater than 67.9 µM. The TGI (HOP-92 NSCLC) was 28 µM, the TGI (PC-3 prostate) was greater than 100 µM and the TGI (SF-268 CNS) was 31.4 µM. For the same molecule, the GI50 (EKVX NSCLC) was 0.039 µM, the TGI (EKVX NSCLC) was greater than 31.6 µM and the GI50 (TK-10 renal) was 0.0337 µM. For the same molecule, the TGI (TK-10 renal) was 28 µM, the TGI (OVCAR-4 ovarian) was greater than 69.5 µM and the TGI (LOX IMVI melanoma) was 37.3 µM. For the same molecule, the TGI (SNB-19 CNS) was greater than 71.1 µM, the TGI (U251 glioblastoma) was greater than 31.6 µM and the GI50 (UO-31 renal) was 0.348 µM. For the same molecule, the TGI (UO-31 renal) was greater than 69.3 µM.
